Test results from patent US20230322815A1, “NOVEL COMPOUNDS AND THERAPEUTIC USES THEREOF” (University of Huddersfield, priority 2020, published 2023).

Legend:
[1] = system: HCT116 p53^+/+ cancer cells; test: Autophagy (CYTO-ID staining, confocal); type: cell-based, human; details: 3.125 μM, 40 h
Method: (§1) FIG. 18. The effects of [L2Cu3]^6+, [L2Zn3]^6+ and [L2Mn3]^6+ on cellular vacuole formation and autophagy in the HCT116 p53^+/+ cancer cells. Representative confocal images are shown of HCT116 p53^+/+ cancer cells following 40 h treatment with vehicle control or 3.125 μM [L2Cu3]^6+, [L2Zn3]^6+, or [L2Mn3]^6+.
(§2) Autophagy studies: The effects of 3.125 μM [L2Cu3]^6+, [L2Zn3]^6+ and [L2Mn3]^6+ treatments (40 h) on the induction of cellular vacuoles and autophagy in the HCT116 p53^−/−, HCT116 p53^+/+ and ARPE19 cells are presented in FIGS. 17-19 with representative cell images shown. […] In the ARPE19 cells, levels of autophagy were low with all treatments and similar to basal levels in control-treated cells (FIG. 19).

HCT116 p53^−/− = test: Chemosensitivity (MTT, 96 h continuous exposure); type: cell-based, human
Method: FIG. 7. Chemosensitivity response of a panel of human cancer and non-cancer cell lines to 96 h continuous exposure to self-assembling test compounds. a, The potency of compounds tested against cancer (HT-29, DLD-1, HCT116 p53^+/+ and […], PSN1, MiaPaCa2, BxPC3, A549, H460 and GBM1) and non-cancer cells (ARPE-19, MCF10A and NP1). Each value represents the mean IC50±standard deviation from a minimum of three independent experiments. b,c, The selectivity index (SI) for [L2Cu3]^6+ (b) and [L2Zn3]^6+ (c) for the indicated cancer cell lines; SI is defined as the mean IC50 against the particular non-cancer cell line model divided by the mean IC50 against the particular cancer cell line. […] As the SI value is calculated using the mean IC50 values, experimental error is not included in these figures. d,e, IC50 values for the clinically approved platinates (cisplatin, oxaliplatin and carboplatin) and [L2Mn3]^6+ and the corresponding SI results.
All cell lines used were maintained at low passage in antibiotic-free media and were obtained from ATCC (LGC Standards, Middlesex, UK) unless otherwise stated (Methods). HT29, DLD-1, HCT116 p53^+/+ and HCT116 p53^−/− are all colorectal adenocarcinoma cell lines derived from different individuals and harbor different combinations of oncogenic lesions (except for the HCT116 isogenic cancer cell clones that are genetically identical except for p53 status). PSN-1, BxPC-3 and MiaPaCa2 are pancreatic carcinoma cell lines and A549 and H460 are lung carcinoma cell lines. HT29, DLD-1, PSN-1, BxPC-3, A549 and H460 cell lines were cultured in RPMI-1640 growth media (Sigma) containing 2 mM L-glutamine, 1 mM sodium pyruvate and 10% fetal bovine serum (FBS). HCT116 (p53^+/+ and p53^−/−) and MiaPaCa2 cell lines were cultured in Dulbecco's Modified Eagle's Medium (Sigma), 2 mM L-glutamine and 10% FBS. The ARPE-19 retinal epithelial non-cancer cell line (Dunn et al., 1996) was cultured in DMEM/F12 media (Gibco), 2 mM L-glutamine, 1 mM sodium pyruvate and 10% FBS. The MCF10A non-cancerous human breast epithelial cell line was cultured in Minimal Essential Media Eagle (Sigma), 2 mM L-glutamine, 1 mM sodium pyruvate, 10% FBS and 1×non-essential amino acids (NEAA). NP1 and GBM1 cells were cultured on plasticware coated with poly-L-ornithine (5 μg/ml) and laminin (2.4 μg/ml) (Polson et al., 2018; Da Silva et al., 2019). […]
[L2M3]^6+ and all the other self-assembling complexes were freshly formed by adding DMSO to individual components mixing together by pipetting. […] Media and MTT were removed and formazan crystals were dissolved in 150 μl of DMSO and the absorbance of the resulting solution determined at 540 nm. […]

[2] = Phosphatase activity: hydrolysis of 4-nitrophenyl phosphate; details: following mixing
From the text: Only [L2Zn3(PO4)]^3+ was observed, coupled with a rapid yellowing of the solution due to the formation of 4-nitrophenolate.
The rate of substrate hydrolysis is also dependent upon the metal used in the self-assembly process.

[3] = system: HCT116 p53^−/− cancer cells; test: Autophagy (CYTO-ID staining, confocal); type: cell-based, human; details: 3.125 μM, 40 h
Method: as §1, with “17.” for “18.”, “p53^−/−” for “p53^+/+”
as §2

| Compound | induction of autophagy [1] | selectivity index (IC50 non-cancer cells / IC50 cancer cells) (HCT116 p53^−/−; HCT116 p53^−/− compared to ARPE-19) | selectivity index (IC50 non-cancer cells / IC50 cancer cells) (HCT116 p53^−/−; HCT116 p53^−/− compared to MCF10A) | IC50 (HCT116 p53^−/−; HCT116 p53^−/−, 96 h, MTT) | fold more active towards HCT116 p53^−/− than HCT116 p53^+/+ (HCT116 p53^−/−; based on 96 h IC50 values) | hydrolysis of 4-nitrophenyl phosphate by 31P NMR [2] | induction of autophagy [3] |
| --- | --- | --- | --- | --- | --- | --- | --- |
| [Zn+2].[Zn+2].[Zn+2].c1ccc(-c2csc(NCCN(CCNc3nc(-c4ccccn4)cs3)CCNc3nc(-c4ccccn4)cs3)n2)nc1.c1ccc(-c2csc(NCCN(CCNc3nc(-c4ccccn4)cs3)CCNc3nc(-c4ccccn4)cs3)n2)nc1 [[L2Zn3]^6+] | barely detectable | over 2000 | over 2000 | 70 ± 13 nM | ~6 fold | almost immediate hydrolysis | – |
| [Cu+2].[Cu+2].[Cu+2].c1ccc(-c2csc(NCCN(CCNc3nc(-c4ccccn4)cs3)CCNc3nc(-c4ccccn4)cs3)n2)nc1.c1ccc(-c2csc(NCCN(CCNc3nc(-c4ccccn4)cs3)CCNc3nc(-c4ccccn4)cs3)n2)nc1 [[L2Cu3]^6+] | – | – | – | – | – | – | no or little autophagy |
